Measured values as given in US20080213376A1, “Medicament that is Intended for Oral Administration, Comprising a Cyclooxygenase-2 Inhibitor, and Preparation Method Thereof” (VETOQUINOL, priority 2005, published 2008).
Values after ≈ are worked out from the molar mass of the structure shown.

Assay: Solubility by HPLC in approximately 0.1N HCl medium
Assay type: physicochemical
Settings: simulated gastric fluid, thermodynamic from solid, HPLC technique
Description: By way of indication, the solubility S0 of the cimicoxib powder alone and the solubility S2 of the particle agglomerate according to this second example of the invention were measured by the HPLC (high performance liquid chromatography) technique and in an approximately 0.1N HCl medium, with the following results (solubilities in milligrams/liter):
By way of indication, the solubility S5 of this particle agglomerate according to this fifth example of the invention was compared to the solubility S0 of the cimicoxib powder alone by the HPLC technique and in an approximately 0.1N HCl medium, with the following results (milligrams/liter): […]

solubility: 3.1 µg/mL (≈ 8.12 µM)
Compound: COc1ccc(-c2c(Cl)ncn2-c2ccc(S(N)(=O)=O)cc2)cc1F [cimicoxib powder alone, cimicoxib]
